{"source": "patent US20070197562A1", "about": "“Remedies for prostatic hypertrophy” (Yokohama TLO Company, Ltd., priority 2004, published 2007)", "tested_on": "MAPK phosphorylation in PC-3 cells", "assay": "MAPK phosphorylation in PC-3 cells cultured in PrSC conditioned media (Western blotting)", "format": "cell-based, human", "conditions": "10% FCS-CM from PrSC with AIIR blocker 10 μM, no angiotensin II; lanes 5 and 6 vs lane 4; 10 minutes", "protocol": "Stromal cells (PrSC) were cultured in a phenol red-free F12 medium containing 0.1% (W/V) BSA, to which angiotensin II (10 μM) was added alone or in combination with losartan (“Los”; 10 μM). The culture medium was collected 24 hours after the addition, and used as a conditioned medium (“0.1% BSA-CM”).\nStromal cells (PrSC) were cultured in a phenol red-free F12 medium containing 10% (V/V) FCS, to which CV (10 μM) or losartan (10 μM) was added. The culture medium was collected 24 hours after the addition, and used as a conditioned medium (“10% FCS-CM”) with no addition of angiotensin II. 10% FCS-CM with no additive was also prepared in the same manner.\n3,000,000 PrSC cells were used for each of the above 10-1 and 10-2\nPC3 cells (prostate cancer cells) were cultured for 24 hours in a phenol red-free F12 medium supplemented with 0.1% (W/V) BSA. Then the medium was replaced with one of the conditioned media prepared as described above, and the cells were collected 10 minutes later. Total cellular proteins were extracted as described below. Similar protocol was done in parallel for PC-3 cells without using any conditioned medium (“Control”).\nThe cells were washed twice with an ice-cold phosphate buffer (PBS), and lysed in 200 μL of an ice-cold cell lysis solution (lysis buffer; 20 mM of Tris (pH8.0), 137 mM of NaCl, 10% of glycerol, 0.1% of SDS, 0.5% of Nonidet P-40 (trade name), 100 mM of sodium fluoride, […] of sodium orthovanadate, 1 mM of EGTA, 2 mM of phenylmethylsulfonyl fluoride, […] of leupeptin, and […] of aprotinin). The mixture was centrifuged. Subsequently, the supernatant was collected.\nThe resulting protein sample was subjected to SDS-PAGE in the routine manner, and the MAPK phosphorylation was determined by Western blotting using an anti-phospho-MAP kinase antibody or an anti-MAP kinase antibody) (both were purchased from Cell Signaling Technology (Beverly, Mass.)) as the detecting antibody.\nFrom the obtained results, the expression levels of pMAPK and MAPK bands were determined using NIH image software. On the basis of the results, the pMAPK/MAPK ratio in each lane was calculated, and then the ratio (“pMAPK ratio”) of the obtained value of each lane to that of the lane 1 (“Control”) was calculated by taking the value of Control as 1."}
{"smiles": "CCOc1nc2cccc(C(=O)OC(C)OC(=O)OC3CCCCC3)c2n1Cc1ccc(-c2ccccc2-c2nnn[nH]2)cc1", "note": "(stereo not shown) [CV, 1-(cyclohexyloxycarbonyloxy)ethyl 2-ethoxy-1-[[2′-(1H-tetrazole-5-yl)biphenyl-4-yl]methyl]-1H-benzimidazole-7-carboxylate]", "values": [{"measurement": "MAPK phosphorylation in PC-3 cells", "result": "suppressed"}]}
